Reference: patent US10285989B2, “Pyrimidinone amide compounds as PDE2 inhibitors” (Merck Sharp & Dohme Corp., priority 2015, dated 2019)
Like-named read-outs stand apart in the source and are kept apart here.

Experiments:
[1] = molecular target: P-glycoprotein (P-gp, rat Mdr1a) (Rattus norvegicus, UniProt Q6PSM0); assay: P-gp transport, experimental BA/AB ratio, rat LLC-Mdr1a; assay type: in vitro ADME; conditions: LLC-PK1; rat LLC-Mdrla; 1 μM substrate concentration
From the text: (§1) See Doan et al. “Passive permeability and P-glycoprotein-mediated efflux differentiate central nervous system (CNS) and non-CNS marketed drugs”, J. Pharm. Exper. […] Desirable human BA/AB ratio is less than 2.0. […] See, for example, Desai, et al. Integration of in Silico and in Vitro Tools for Scaffold Optimization during Drug Discovery: Predicting P-glycoprotein Efflux” Mol. Pharmac.

[2] = molecular target: Rhesus PDE2A3 (Macaca mulatta, UniProt B3VTJ2); assay: PDE2 fluorescence polarization (IMAP FP) inhibition assay, rhesus PDE2A3; assay type: biochemical, rhesus macaque
Chain of Rhesus PDE2A3 (B3VTJ2 1-941): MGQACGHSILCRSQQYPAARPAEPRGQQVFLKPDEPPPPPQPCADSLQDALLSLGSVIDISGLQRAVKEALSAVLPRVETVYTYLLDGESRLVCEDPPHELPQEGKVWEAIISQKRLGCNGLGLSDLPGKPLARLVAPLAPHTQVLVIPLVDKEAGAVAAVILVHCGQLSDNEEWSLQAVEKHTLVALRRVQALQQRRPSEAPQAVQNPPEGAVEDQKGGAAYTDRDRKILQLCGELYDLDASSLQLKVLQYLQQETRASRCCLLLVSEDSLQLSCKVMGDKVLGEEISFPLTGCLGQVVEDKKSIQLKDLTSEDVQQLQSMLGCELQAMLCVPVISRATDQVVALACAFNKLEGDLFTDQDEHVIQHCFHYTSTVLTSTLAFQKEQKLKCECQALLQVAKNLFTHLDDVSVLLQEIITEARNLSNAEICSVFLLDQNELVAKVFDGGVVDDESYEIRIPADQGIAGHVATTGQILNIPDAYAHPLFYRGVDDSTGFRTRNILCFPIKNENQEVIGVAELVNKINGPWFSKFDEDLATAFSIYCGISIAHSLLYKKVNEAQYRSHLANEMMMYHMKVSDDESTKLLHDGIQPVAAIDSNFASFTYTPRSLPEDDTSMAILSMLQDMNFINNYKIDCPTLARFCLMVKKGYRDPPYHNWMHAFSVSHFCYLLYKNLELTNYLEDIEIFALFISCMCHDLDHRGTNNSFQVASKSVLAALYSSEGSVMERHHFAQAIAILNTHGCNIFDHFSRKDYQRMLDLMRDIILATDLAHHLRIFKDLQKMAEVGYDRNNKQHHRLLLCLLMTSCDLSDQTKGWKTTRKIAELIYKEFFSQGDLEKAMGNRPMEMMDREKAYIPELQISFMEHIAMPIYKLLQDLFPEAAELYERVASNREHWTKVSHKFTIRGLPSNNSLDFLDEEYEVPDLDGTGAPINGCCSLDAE

[3] = molecular target: P-glycoprotein (P-gp) (Homo sapiens (Human), UniProt P08183); assay: P-gp transport, experimental BA/AB ratio, human; assay type: in vitro ADME; conditions: LLC-PK1, 1 μM substrate concentration
Chain of P-glycoprotein (P-gp) (P08183 whole entry): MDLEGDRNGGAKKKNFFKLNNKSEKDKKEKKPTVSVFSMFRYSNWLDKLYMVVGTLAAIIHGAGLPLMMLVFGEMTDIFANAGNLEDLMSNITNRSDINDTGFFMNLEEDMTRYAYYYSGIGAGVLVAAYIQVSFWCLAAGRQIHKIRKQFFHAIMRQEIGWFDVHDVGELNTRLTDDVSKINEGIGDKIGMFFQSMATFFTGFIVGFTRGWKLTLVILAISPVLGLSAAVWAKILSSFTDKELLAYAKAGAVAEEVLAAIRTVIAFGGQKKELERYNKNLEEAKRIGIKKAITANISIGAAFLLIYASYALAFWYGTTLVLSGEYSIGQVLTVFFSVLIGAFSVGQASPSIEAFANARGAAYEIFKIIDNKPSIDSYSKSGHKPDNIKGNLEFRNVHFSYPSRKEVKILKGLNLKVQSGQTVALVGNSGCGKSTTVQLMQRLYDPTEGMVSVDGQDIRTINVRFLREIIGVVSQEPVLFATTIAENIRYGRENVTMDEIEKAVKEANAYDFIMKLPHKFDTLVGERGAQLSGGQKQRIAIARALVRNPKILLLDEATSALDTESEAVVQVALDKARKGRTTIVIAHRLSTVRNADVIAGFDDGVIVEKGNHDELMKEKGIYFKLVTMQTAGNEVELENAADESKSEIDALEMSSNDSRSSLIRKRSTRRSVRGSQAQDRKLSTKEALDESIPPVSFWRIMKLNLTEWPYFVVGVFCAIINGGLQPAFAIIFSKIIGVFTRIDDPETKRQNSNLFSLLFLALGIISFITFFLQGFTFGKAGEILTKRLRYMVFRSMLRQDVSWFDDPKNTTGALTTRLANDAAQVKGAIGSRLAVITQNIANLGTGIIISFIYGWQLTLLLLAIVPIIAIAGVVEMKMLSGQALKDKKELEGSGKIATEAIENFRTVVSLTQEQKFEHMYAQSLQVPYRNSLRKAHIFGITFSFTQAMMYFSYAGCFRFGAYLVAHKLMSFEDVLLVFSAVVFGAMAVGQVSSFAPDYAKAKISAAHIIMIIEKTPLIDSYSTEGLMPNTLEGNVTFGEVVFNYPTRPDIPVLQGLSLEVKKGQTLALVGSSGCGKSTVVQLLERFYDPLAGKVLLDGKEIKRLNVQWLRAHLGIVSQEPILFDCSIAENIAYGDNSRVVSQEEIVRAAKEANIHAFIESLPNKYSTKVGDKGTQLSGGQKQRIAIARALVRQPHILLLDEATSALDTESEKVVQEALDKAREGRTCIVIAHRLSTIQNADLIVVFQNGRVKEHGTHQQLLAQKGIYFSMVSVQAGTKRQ
From the text: as §1

[4] = molecular target: human PDE2A1 (Homo sapiens (Human), UniProt O00408); assay: PDE2 IMAP FP inhibition assay, human PDE2A1 (selectivity panel format); assay type: biochemical
Chain of human PDE2A1 (O00408 other isoform, or with tags, fused parts or gaps): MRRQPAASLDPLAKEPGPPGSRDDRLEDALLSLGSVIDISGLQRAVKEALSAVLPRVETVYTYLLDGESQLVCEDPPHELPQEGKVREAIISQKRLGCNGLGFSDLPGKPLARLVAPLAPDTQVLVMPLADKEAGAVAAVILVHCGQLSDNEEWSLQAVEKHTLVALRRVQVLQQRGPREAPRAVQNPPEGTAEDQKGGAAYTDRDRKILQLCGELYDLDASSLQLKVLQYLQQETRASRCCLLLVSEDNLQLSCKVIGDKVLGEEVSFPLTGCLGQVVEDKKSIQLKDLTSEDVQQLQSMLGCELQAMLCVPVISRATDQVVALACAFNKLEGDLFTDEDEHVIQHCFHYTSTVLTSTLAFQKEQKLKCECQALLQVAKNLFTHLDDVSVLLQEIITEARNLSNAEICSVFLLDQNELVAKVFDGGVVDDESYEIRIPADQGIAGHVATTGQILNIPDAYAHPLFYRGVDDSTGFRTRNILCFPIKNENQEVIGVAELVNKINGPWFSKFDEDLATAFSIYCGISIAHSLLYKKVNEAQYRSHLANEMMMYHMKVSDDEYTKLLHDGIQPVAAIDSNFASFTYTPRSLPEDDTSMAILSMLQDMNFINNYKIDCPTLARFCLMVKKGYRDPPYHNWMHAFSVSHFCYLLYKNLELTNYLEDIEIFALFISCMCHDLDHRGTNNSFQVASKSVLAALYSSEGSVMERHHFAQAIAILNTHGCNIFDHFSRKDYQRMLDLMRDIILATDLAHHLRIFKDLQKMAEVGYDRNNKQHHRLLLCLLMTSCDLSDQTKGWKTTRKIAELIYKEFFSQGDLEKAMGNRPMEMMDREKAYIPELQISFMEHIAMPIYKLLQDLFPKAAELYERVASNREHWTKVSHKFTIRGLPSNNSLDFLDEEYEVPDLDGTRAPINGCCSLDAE
Outline: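 Enzyme dosed to give about 20% substrate turnover acts for 60 min at room temperature on 50 nM FAM-cAMP plus 1000 nM cGMP (Tris pH 7.2, MgCl2, DTT, Tween-20 buffer). IMAP binding solution then stops the reaction; after 1 h, polarization is measured from parallel and perpendicular fluorescence.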

[5] = Lab A, read-out: Rhesus PDE2 Ki (nM) - Lab A
[6] = Lab B, read-out: Rhesus PDE2 Ki (nM) - Lab B
[7] = Lab B, read-out: Human PDE2 Ki (nM) - Lab B
[8] = Lab A, read-out: Human PDE2 Ki (nM) - Lab A

Chain of P-glycoprotein (P-gp, rat Mdr1a) (Q6PSM0 1-1272): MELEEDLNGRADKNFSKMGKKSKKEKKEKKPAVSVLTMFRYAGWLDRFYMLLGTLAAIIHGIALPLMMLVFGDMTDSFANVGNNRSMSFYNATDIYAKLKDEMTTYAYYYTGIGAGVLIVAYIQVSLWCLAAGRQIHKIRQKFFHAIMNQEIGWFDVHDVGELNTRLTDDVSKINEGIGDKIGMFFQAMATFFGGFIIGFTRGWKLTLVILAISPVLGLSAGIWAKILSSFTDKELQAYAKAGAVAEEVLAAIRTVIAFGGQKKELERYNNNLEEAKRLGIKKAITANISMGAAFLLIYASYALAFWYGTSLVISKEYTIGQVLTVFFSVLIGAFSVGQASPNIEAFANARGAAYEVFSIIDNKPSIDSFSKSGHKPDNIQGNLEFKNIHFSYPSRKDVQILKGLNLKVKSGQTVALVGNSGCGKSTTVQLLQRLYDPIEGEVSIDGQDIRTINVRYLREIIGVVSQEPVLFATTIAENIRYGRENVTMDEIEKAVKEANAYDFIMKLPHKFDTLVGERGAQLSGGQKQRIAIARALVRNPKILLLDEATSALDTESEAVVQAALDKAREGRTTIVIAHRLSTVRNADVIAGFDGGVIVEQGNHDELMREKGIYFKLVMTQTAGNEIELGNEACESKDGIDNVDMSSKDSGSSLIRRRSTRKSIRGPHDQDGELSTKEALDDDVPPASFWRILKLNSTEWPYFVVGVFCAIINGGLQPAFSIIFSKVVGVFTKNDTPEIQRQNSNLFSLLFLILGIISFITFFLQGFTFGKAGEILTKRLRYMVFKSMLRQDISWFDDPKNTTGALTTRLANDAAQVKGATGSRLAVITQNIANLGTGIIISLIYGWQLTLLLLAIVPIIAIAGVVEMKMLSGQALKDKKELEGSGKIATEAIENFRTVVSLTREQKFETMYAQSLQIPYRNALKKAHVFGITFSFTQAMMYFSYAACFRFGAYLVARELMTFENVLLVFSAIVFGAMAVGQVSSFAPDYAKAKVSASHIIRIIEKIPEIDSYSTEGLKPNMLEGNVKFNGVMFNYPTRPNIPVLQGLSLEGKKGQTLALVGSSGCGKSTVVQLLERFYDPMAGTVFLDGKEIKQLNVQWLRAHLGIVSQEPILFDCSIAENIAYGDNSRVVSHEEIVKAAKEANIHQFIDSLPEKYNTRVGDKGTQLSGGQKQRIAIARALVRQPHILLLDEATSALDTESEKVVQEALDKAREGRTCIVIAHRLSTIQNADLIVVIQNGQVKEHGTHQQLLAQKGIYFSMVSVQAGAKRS

Structure (SMILES)	efflux ratio at 1 μM [1]	Ki [2, 5]	Ki [2, 6]	efflux ratio at 1 μM [3]	Ki [4, 7]	Ki [4, 8]
C[C@@H](NC(=O)c1cc(=O)[nH]c(N2CCCC2)n1)c1ccc(C(F)(F)F)cc1 [Example 6, (R)-6-oxo-2-(pyrrolidin-1-yl)-N-(1-(4-(trifluoromethyl)phenyl)ethyl)-1,6-dihydropyrimidine-4-carboxamide]	3.2	2.5 nM	–	0.5	–	1.7 nM
C[C@@H](NC(=O)c1cc(=O)[nH]c(N2CCC2)n1)c1ccc(C(F)(F)F)cc1 [Example 10, (R)-2-(azetidin-1-yl)-6-oxo-N-(1-(4-(trifluoromethyl)phenyl)ethyl)-1,6-dihydropyrimidine-4-carboxamide]	3.1	8.5 nM	–	0.5	–	8.2 nM
C[C@@H](NC(=O)c1cc(=O)[nH]c(N2CC[C@H](F)C2)n1)c1ccc(C(F)(F)F)cc1 [Example 12, 2-((S)-3-fluoropyrrolidin-1-yl)-6-oxo-N—((R)-1-(4-(trifluoromethyl)phenyl)ethyl)-1,6-dihydropyrimidine-4-carboxamide]	9	4.5 nM	–	0.7	–	1.8 nM
C[C@@H](NC(=O)c1cc(=O)[nH]c(N2CCC(F)(F)C2)n1)c1ccc(C(F)(F)F)cc1 [Example 13, (R)-2-(3,3-difluoropyrrolidin-1-yl)-6-oxo-N-(1-(4-(trifluoromethyl)phenyl)ethyl)-16-dihydropyrimidine-4-carboxamide]	5.9	13 nM	–	0.6	–	9.2 nM
C[C@@H](NC(=O)c1cc(=O)[nH]c(N2CC(F)C2)n1)c1ccc(C(F)(F)F)cc1 [Example 23, 2-(3-Fluoroazetidin-1-yl)-6-oxo-N-{(1R)-1-[4-(trifluoromethyl)phenyl]ethyl}-1,6-dihydropyrimidine-4-carboxamide]	7.6	27 nM	–	1.4	–	16 nM
CN(C)c1nc(C(=O)N[C@@H](c2ccc(CC(F)(F)F)cc2)C(C)(C)C)cc(=O)[nH]1 [Example 31, 2-(dimethylamino)-N-{(1R)-2,2-dimethyl-1-[4-(2,2,2-trifluoroethyl)phenyl]propyl}-6-oxo-1,6-dihydropyrimidine-4-carboxamide]	9.7	–	0.42 nM	1.5	0.51 nM	–

The remaining compounds from weak to strong by Ki [2, 5], led by results:

efflux ratio at 1 μM [1]	Ki [2, 5]	Ki [2, 6]	efflux ratio at 1 μM [3]	Ki [4, 7]	Ki [4, 8]	Structure (SMILES)
4.5	1.4 nM	–	0.9	–	0.34 nM	O=C(N[C@@H](c1ccc(C(F)(F)F)cc1)C1CC1)c1cc(=O)[nH]c(N2CCCC2)n1 [Example 26]
3.6	0.69 nM	1.5 nM	0.5	1.3 nM	–	CC[C@@H](NC(=O)c1cc(=O)[nH]c(N(C)C)n1)c1ccc(S(F)(F)(F)(F)F)cc1 [Example 5, (R)-2-(dimethylamino)-6-oxo-N-(1-(4-(pentafluoro-λ^6-sulfanyl)phenyl)propyl)-1,6-dihydropyrimidine-4-carboxamide]
7	0.58 nM	–	0.8	–	0.21 nM	O=C(N[C@@H](c1ccc(SC(F)(F)F)cc1)C1CC1)c1cc(=O)[nH]c(N2CCCC2)n1 [Example 27, N-[(R)-cyclopropyl{4-[(trifluoromethyl)sulfanyl]phenyl}methyl]-6-oxo-2-pyrrolidin-1-yl-1,6-dihydropyrimidine-4-carboxamide]
2.6	0.19 nM	0.22 nM	0.4	0.37 nM	≤ 5.1 nM	CC(C)[C@@H](NC(=O)c1cc(=O)[nH]c(N(C)C)n1)c1ccc(SC(F)(F)F)cc1 [Example 30, 2-(dimethylamino)-N-[(1R)-2-methyl-1-{4-[(trifluoromethyl)sulfanyl]phenyl}propyl]-6-oxo-1,6-dihydropyrimidine-4-carboxamide]
